We go through 9 compounds from PMC5738580, “Design, Synthesis, and Cytotoxicity Evaluation of Novel Griseofulvin Analogues with Improved Water Solubility” (International Journal of Medicinal Chemistry, 2017).

Usually IC50 stands for the concentration that inhibits the measured activity by half. Usually solubility stands for how much of the substance goes into solution per volume.

Converted amounts (≈) assume the structure as drawn. Like-named read-outs stand apart in the source and are kept apart here.

The subject of series [1] is MCF-7 cells. Description: SRB cytotoxicity assay, MCF-7. Conditions: Homo sapiens, MCF7, read-out: IC50 against MCF-7. Type of series: cell-based. How it is done: (§1) Breast carcinoma MCF-7 and colorectal cancer HCT116 cell lines were used in this study. Cancer cell lines were obtained frozen in liquid nitrogen (−180°C) from the American Type Culture Collection (ATCC). The tumor cell line was maintained by serial subculturing in RPMI 1640 media containing 10% […] at the National Cancer Institute, Cairo, Egypt.
(§2) Cytotoxicity assay was carried out according to the reported literature, where the sensitivity of the MCF-7 and HCT116 cell lines to the tested compounds and their combination was determined by the SRB assay. In brief, cells were seeded at a density of 3 × 10^3 cells/well in 96-well microtiter plates. Cells were left to attach for 24 hours before incubation with drugs. Next, they were treated with different concentrations of the tested compounds (10, 20, 30, 40, 50, and 100 μM).
(§3) Control cells containing 200 μl/well of DMSO (0.1% v/v) were used similarly. At the end of incubation, cells were fixed with 20% trichloroacetic acid (TCA), stained with 0.4% Sulforhodamine B (SRB), and rinsed with 1% acetic acid. The bound protein stain was solubilized with Tris base (10 mM, pH 10.5) and the optical density (OD) of each well was measured spectrophotometrically at 570 nm using ELISA microplate reader (TECAN, Sunrise^TM, Germany). The fraction of cell survival was calculated as follows.
(§4) Survival fraction = OD treated/OD control. […] Each experiment was repeated 3 times.

A short description of series [2]: Equilibrium solubility in buffer solutions (UV). The class given is physicochemical. As to conditions: thermodynamic from solid, 37 °C, read-out: Mean solubility ± SD. How it is done:
UV measurements were performed on single beam spectrophotometer (Jenway, model 6305, UK). Equilibrium solubility was performed through using digital precise shaking water bath (DAIHAN Scientific Co., model WSB-45, Republic of Korea).
A powdered sample (20 mg), of each of the tested compounds [3, 5–10, and griseofulvin 1], was accurately weighed and dissolved in 100 ml of methanol to prepare 200 μg/ml stock solution. Compound solutions (20 μg/ml) in the investigated media (buffer solutions of pH 1.2 and 6.8) were prepared from stock solution after appropriate dilution. The prepared solutions were scanned in the UV-Vis region (200–800 nm) to determine the wavelength of maximum absorption (λmax) in each medium.
Solutions containing different concentrations of the investigated compound were prepared from stock solution after appropriate dilution with the investigated buffer solutions. The UV absorbance of the prepared sample solutions was measured at λmax of the investigated compound using the investigated buffer solution as a reference solution (blank). The determined absorbance values were plotted versus the corresponding concentrations to construct the standard calibration curves.
Equilibrium solubility of each of the tested compounds was determined by placing an excess amount of the compound in stoppered glass volumetric flask containing 10 ml of the investigated buffer solution. The solutions were shaken at a rate of (40 ± 2) stroke/minute in a thermostatically controlled water bath at 37 ± 0.5°C for 24 hours to ensure equilibrium. Samples of 2 ml were withdrawn from each test solution, filtered immediately, and assayed spectrophotometrically at the determined λmax of the investigated compound.

For series [3], the system named is HCT116 cells. Nature of the series: SRB cytotoxicity assay, HCT116. Type of series: cell-based, human. As to conditions: for IC50: Homo sapiens, HCT-116, read-out: IC50 against HCT116. How it is done: as §1, §2, §3, §4
A general note: Sulforhodamine B stains cellular protein and so reports cell mass.

A further series deals with centrosomal clustering. Further details: method as in PMID 22191585, PMID 19402668. As to conditions: cited from earlier work.
Series [4] relates to MCF-7 cells. Description: Apoptosis, Annexin V-FITC/PI flow cytometry. The class given is cell-based, human. As to conditions: MCF-7, 21.5 μM, 48 hrs. How it is done: In order to study the effect of compound 9 on apoptosis, MCF-7 cells were treated with compound 9 (21.5 μM) for 48 hrs and harvested for fluorescence microscopic and flow cytometric analysis of Annexin V-FITC/propidium iodide (PI) staining. […] The percentage of apoptotic cells was 2.65% in control untreated MCF-7 cells and 31.75% after treatment with compound 9.
In brief, untreated and treated MCF-7 cells (21.5 μM of 9) were harvested and resuspended in calcium buffer at a concentration of 1 × 10^6 cells/ml. Annexin V-FITC (10 μl) was added to 100 μl of cells. The tubes were incubated for 20 min in the dark. The cells were then washed with calcium buffer and propidium iodide (10 μl) was added to each tube and incubated for at least 10 min on ice. Samples were analyzed by FACScan flow cytometer (Becton-Dickinson, San Jose, CA, USA) using CellQuest software (Becton-Dickinson, San Jose, CA).
Background: In flow cytometry, cells or beads pass a laser one at a time.

The test system of series [5] is HCT116 cells. Description: Combination of compound 9 with 5-fluorouracil (SRB, combination index). Type of series: cell-based, human. How it is done: (§5) Estrogen-dependent breast cancer represents 70% of all types of breast cancer. […] Combination therapy is used in order to prevent resistance or recurrence. […] Similar study was performed for evaluation of combination effect of compound 9 with 5-fluorouracil on HCT116 cells proliferation (Figure 1).
as §2
(§6) CI was employed to determine whether the compounds interacted synergistically, additively, or antagonistically. […] If “CI” is less than 1, the effect of combination is synergistic, whereas if CI = 1 or >1, the effect is additive or antagonistic, respectively.

Series [6] has as its system MCF-7 cells. Description: Combination of compound 9 with tamoxifen (SRB, combination index). The class given is cell-based, human. How it is done:
as §5, §2, §6

The mark [7] stands for this setting: buffer solution pH 1.2, simulated gastric fluid, pH 1.2 buffer solution.
The mark [8] stands for this setting: buffer solution pH 6.8, aqueous buffer, pH 6.8 buffer solution.

Turning to `COc1cc(OC)c2c(c1Cl)O[C@]1(C2=O)C(OCc2ccccc2)=CC(=NOCC(=O)O)C[C@H]1C` (mixture of isomers) [Compound 5, 2-(((E/Z)-[(2S,6′R)2′-Benzyloxy-7-chloro-4,6-dimethoxy-6′-methyl-3-oxo-3H-spiro[benzofuran-2,1′-cyclohex[2′]en]-4′-ylidene]amino)oxy) Acetic Acid], the results for the IC50 in the series on MCF-7 cells [1] and in the series with HCT116 cells [3] were 20.7 µM and over 100 µM, respectively. Besides, the solubility at 24 h in series [2] (setting [7]) was 14.3 ± 0.42 µg/mL; in series [2] (setting [8]), 27.94 ± 0.27 µg/mL.
The corresponding values for `COC1=CC(=NNC(N)=O)C[C@@H](C)[C@]12Oc1c(Cl)c(OC)cc(OC)c1C2=O` (mixture of isomers) [Compound 6, (E/Z)-2-((2S,6′R)-7-Chloro-2′,4,6-trimethoxy-6′-methyl-3-oxo-3H-spiro[benzofuran-2,1′-cyclohex[2′]en]-4′-ylidene)hydrazine-1-carboxamide] are 55.9 µM, 87.8 µM, 14.86 ± 0.12 µg/mL and 14.5 ± 0.39 µg/mL.
The corresponding values for `COC1=CC(=NNC(=O)c2ccncc2)C[C@@H](C)[C@]12Oc1c(Cl)c(OC)cc(OC)c1C2=O` (mixture of isomers) [Compound 8, (E/Z)-N′-((2S,6′R)-7-Chloro-2′,4,6-trimethoxy-6′-methyl-3-oxo-3H-spiro[benzofuran-2,1′-cyclohex[2′]en]-4′-ylidene)isonicotinic Acid Hydrazide] are 25.3 µM, 39.8 µM, 29.1 ± 0.72 µg/mL and 12.5 ± 0.54 µg/mL.
Regarding `O=c1[nH]cc(F)c(=O)[nH]1` [5-Fluorouracil, reference compound], the IC50 in the series on HCT116 cells [3] is 19.5 µM.
As for `COC1=CC(=O)C[C@@H](C)[C@]12Oc1c(Cl)c(OC)cc(OC)c1C2=O` [Compound 1, Griseofulvin], the half-maximal inhibitory concentration (IC50) in the series on MCF-7 cells [1] was 69 µM; in the series on HCT116 cells [3], 35.5 µM. The solubility at 24 h in series [2] (setting [7]) is 12.3 ± 0.29 µg/mL (≈ 34.9 µM); in series [2] (setting [8]), 12.4 ± 0.26 µg/mL (≈ 35.1 µM).
As to `COc1cc(OC)c2c(c1Cl)O[C@]1(C2=O)C(OCc2ccccc2)=CC(=O)C[C@H]1C` [Compound 3, (2S,6′R)-2′-Benzyloxy-7-chloro-4,6-dimethoxy-6′-methyl-3H-spiro[benzofuran-2,1′-cyclohex[2′]en]-3,4′-dione, reference compound], in the series with centrosomal clustering, the “increase in activity as a centrosome clustering inhibitor compared to 1” value is recorded as 25 fold. Also, the results for the IC50 in the series with MCF-7 cells [1] and with HCT116 cells [3] were 32.8 µM and 35.8 µM, respectively. Besides, the solubility at 24 h is 11.1 ± 0.37 µg/mL (≈ 26 µM) in series [2] (setting [7]) and 11.1 ± 0.82 µg/mL (≈ 25.9 µM) in series [2] (setting [8]).
Regarding `COC1=CC(=NNC(=N)N)C[C@@H](C)[C@]12Oc1c(Cl)c(OC)cc(OC)c1C2=O` [Compound 7, 2-((2S,6′R)-7-Chloro-2′,4,6-trimethoxy-6′-methyl-3-oxo-3H-spiro[benzo-furan-2,1′-cyclohex[2′]en]-4′-ylidene)hydrazine-1-carboximidamide], the IC50 in the series on MCF-7 cells [1] was found to be 54.5 µM; in the series on HCT116 cells [3], 85.6 µM.
Regarding `COc1cc(OC)c2c(c1Cl)OC1(C2=O)C(OCc2ccccc2)=CC(=NNC(N)=O)CC1C` [Compound 9, 2-((2S,6′R)-2′-Benzyloxy-7-chloro-4,6-dimethoxy-6′-methyl-3-oxo-3H-spiro[benzofuran-2,1′-cyclohex[2′]en]-4′-ylidene)hydrazine-1-carboxamide], in the series with MCF-7 cells [4], the “percentage of apoptotic cells” value came out at 31.75%. Further, the figures for the IC50 with MCF-7 cells [1] and with HCT116 cells [3] were 21.5 µM and 10.5 µM, respectively. Besides, the solubility at 24 h in series [2] (setting [7]) is 14 ± 0.31 µg/mL (≈ 28.7 µM); in series [2] (setting [8]), 13.78 ± 0.07 µg/mL (≈ 28.4 µM). Further, the “combination index (CI)” value with HCT116 cells [5] (half of IC50 of compound 9 + quarter of IC50 of 5-fluorouracil) was 0.37 ± 0.07; with HCT116 cells [5] (quarter of IC50 of compound 9 + half of IC50 of 5-fluorouracil), 0.2 ± 0.06; in the series on MCF-7 cells [6] (half of IC50 of compound 9 + quarter of IC50 of tamoxifen), 0.25 ± 0.03; in the series on MCF-7 cells [6] (quarter of IC50 of compound 9 + half of IC50 of tamoxifen), 0.17 ± 0.06. For the same compound, the “increase in activity over 5-fluorouracil against HCT116” value in the series on HCT116 cells [3] was 2 fold.
With `COc1cc(OC)c2c(c1Cl)OC1(C2=O)C(OCc2ccccc2)=CC(=NNC(=N)N)CC1C` [Compound 10, 2-((2S,6′R)-2′-Benzyloxy-7-chloro-4,6-dimethoxy-6′-methyl-3-oxo-3H-spiro[benzofuran-2,1′-cyclohex[2′]en]-4′-ylidene)hydrazine-1-carboximidamide], the half-inhibitory concentration (IC50) amounted to 14.5 µM with MCF-7 cells [1] and 8.39 µM in the series with HCT116 cells [3]. Besides, the solubility at 24 h in series [2] (setting [7]) is 26.7 ± 0.57 µg/mL (≈ 55 µM); in series [2] (setting [8]), 16.6 ± 0.58 µg/mL (≈ 34.2 µM). For the same compound, the “increase in activity over 5-fluorouracil against HCT116” value in the series with HCT116 cells [3] amounted to 2 fold.
